The structures appear in SMILES notation.

Holding throughout (assay type): in vivo
The subject of data set [1] is avoidance response to electrical shock in trained fasted rats. The experiment in a line: Conditioned Avoidance Response (CAR). The conditions noted are these: Rattus norvegicus, po. An excerpt:
Conditioned Avoidance Response (CAR) - measure of a
drug's tranquilizing activity as determined by its
attenuation of avoidance response to electrical shock
in trained fasted rats. cf: Albert, Pharmacologist, 4,

For data set [2], the system named is apomorphine-induced stereotypy in rats. Description: Inhibition of Apomorphine-Induced (APO) Stereotypy. The conditions noted are these: Rattus norvegicus, po. An excerpt: 2. Inhibition of Apomorphine-Induced (APO) Stereotypy -
an assessment of blockade of dopaminergic activity in
rats as measured by attenuation of the behavioral
syndrome caused by the dopamine agonist, apomorphine.
of: Janssen, et al., Arzneimittel. Forsch., 17, 841

The nature of data set [3]: Catalepsy (drug-induced catalepsy). The conditions noted are these: rat, in vivo, po, rats; read-out: Catalepsy Induction ED50. From the text:
(§1) 3. Catalepsy - drug-induced catalepsy in rats is predic-
(§2) tive of potential extrapyramidal symptoms (EPS) in man.
(§3) of: Costall, et al., Psychopharmacologia, 34, 233-241

In data set [4] the test system is neuroleptic-induced catalepsy in the rat. Description: Catalepsy Reversal. The conditions noted are these: po. An excerpt: 4. Catalepsy Reversal - measure of a drug's ability to
reverse neuroleptic-induced catalepsy in the rat.

For data set [5], the system named is drug-induced catalepsy in rats. The experiment in a line: Catalepsy (drug-induced catalepsy). The conditions noted are these: p.o.
Text: as §1, §2, §3

For orientation: ED50 means the dose that gives a 50% effect, or the effect in half of the subjects. Turning to `CC1(C)CC(=O)N(CCCCN2CCN(c3nccc4sccc34)CC2)C(=O)C1` [Example 24, 4,4-Dimethyl-1-[4-[4-(thieno[3,2-c]pyridin-4-yl)-1-piperazinyl]butyl]-2,6-piperidinedione], the ED50 in data set [1] was 6 mg/kg; in data set [2], 40 mg/kg; in data set [3], greater than 24 mg/kg; in data set [4], greater than 20 mg/kg.

As to `O=C1COCC(=O)N1CCCCN1CCN(c2nccc3occc23)CC1` [Example 25, 4-[4-[4-(4-Furo[3,2-c]pyridinyl)-1-piperazinyl]butyl]-3,5-morpholinedione], the median effective dose (ED50) was 11 mg/kg in data set [1], 34 mg/kg in data set [2], greater than 46 mg/kg in data set [3] and 2 mg/kg in data set [4].

As to `O=C1SC2(CCCC2)C(=O)N1CCCCN1CCN(c2nccc3sccc23)CC1` [Example 26], the values for the ED50 in data set [1], in data set [2] and in data set [4] were 12 mg/kg, 35 mg/kg and greater than 20 mg/kg, respectively.

As for `OC(CCCN1CCN(c2nccc3sccc23)CC1)c1ccc(F)cc1` (centres unmarked) [Example 27], the median effective dose (ED50) was 10 mg/kg in data set [1], 9 mg/kg in data set [2], greater than 40 mg/kg in data set [3] and greater than 20 mg/kg in data set [4].

Turning to `O=C1SC2(CCCC2)C(=O)N1CCCCN1CCN(c2nccc3sc(Br)cc23)CC1` [Example 28], the ED50 is greater than 100 mg/kg in data set [1], greater than 100 mg/kg in data set [2] and 16 mg/kg in data set [4].

As to `CC1(C)CC(=O)N(CCCCN2CCN(c3nccc4sc(Br)cc34)CC2)C(=O)C1` [Example 29], the ED50 is 65 mg/kg in data set [1] and greater than 20 mg/kg in data set [4].

On to `Cc1cc2c(N3CCN(CCCCN4C(=O)SC5(CCCC5)C4=O)CC3)nccc2s1` [Example 30], for which the 50% effective dose (ED50) in data set [1] was 35 mg/kg; in data set [3], greater than 142 mg/kg; in data set [4], greater than 20 mg/kg.

Consider `O=C1CSCC(=O)N1CCCCN1CCN(c2nccc3sccc23)CC1` [Example 31], for which the results for the ED50 in data set [1], in data set [3] and in data set [4] were 32 mg/kg, greater than 128 mg/kg and greater than 20 mg/kg, respectively.

`O=C1SC2(CCCC2)C(=O)N1CCCCN1CCN(c2nccc3ccsc23)CC1` [Example 36]: the median effective dose (ED50) in data set [1] is 43 mg/kg; in data set [2], 47 mg/kg; in data set [4], greater than 20 mg/kg.

Consider `O=C1SC2(CCCC2)C(=O)N1CCCCN1CCN(c2nccc3occc23)CC1` [Example 37], for which the ED50 in data set [1] was 9 mg/kg; in data set [2] it was 18 mg/kg; in data set [3], 23 mg/kg; in data set [4], greater than 20 mg/kg.

Turning to `CC1(C)CC(=O)N(CCCCN2CCN(c3nccc4occc34)CC2)C(=O)C1` [Example 38], the ED50 in data set [1] was 4 mg/kg; in data set [2] it was 7 mg/kg; in data set [3], 13 mg/kg; in data set [4] it was greater than 20 mg/kg.

Take `OC(CCCN1CCN(c2nccc3occc23)CC1)c1ccc(F)cc1` (centres unmarked) [Example 39]: the ED50 is 3 mg/kg in data set [1], 5 mg/kg in data set [2], 11 mg/kg in data set [3] and greater than 20 mg/kg in data set [4].

`Cc1cc2c(N3CCN(CCCCN4C(=O)SC5(CCCC5)C4=O)CC3)nccc2o1` [Example 40]: the 50% effective dose (ED50) in data set [1] was 28 mg/kg; in data set [2], 41 mg/kg.

As to `Cc1cc2c(N3CCN(CCCCN4C(=O)CC(C)(C)CC4=O)CC3)nccc2o1` [Example 41], the ED50 in data set [1] was 14 mg/kg; in data set [2], 22 mg/kg; in data set [3] it was 40 mg/kg; in data set [4], greater than 20 mg/kg.

Turning to `O=C1CSCC(=O)N1CCCCN1CCN(c2nccc3occc23)CC1` [Example 42], the ED50 in data set [1] is 36 mg/kg; in data set [2] it was 63 mg/kg; in data set [4] it was greater than 20 mg/kg.

For `Cc1cc2c(N3CCN(CCCC(O)c4ccc(F)cc4)CC3)nccc2o1` (centres unmarked) [Example 43], the ED50 in data set [1] was 23 mg/kg; in data set [4], greater than 20 mg/kg.

On to `Cn1ccc2c(N3CCN(CCCCN4C(=O)SC5(CCCC5)C4=O)CC3)nccc21` [Example 47], for which the ED50 is 60 mg/kg in data set [1], 61 mg/kg in data set [2] and greater than 20 mg/kg in data set [4].

With `Cn1ccc2c(N3CCN(CCCCN4C(=O)COCC4=O)CC3)nccc21` [Example 48], the ED50 in data set [1] is greater than 100 mg/kg; in data set [2], greater than 100 mg/kg; in data set [4], greater than 20 mg/kg.

With `Cn1ccc2c(N3CCN(CCCCN4C(=O)CC(C)(C)CC4=O)CC3)nccc21` [Example 49], the ED50 in data set [1] was 67 mg/kg; in data set [2], greater than 100 mg/kg; in data set [4] it was greater than 20 mg/kg.

For `O=C1CCCC(=O)N1CCCCN1CCN(c2nccc3sccc23)CC1` [Example 58], the 50% effective dose (ED50) in data set [1] is 5 mg/kg; in data set [2], 56 mg/kg; in data set [4], greater than 20 mg/kg. For the same molecule, the “Catalepsy Induction ED50” value in data set [5] was “Inactive at 4 ×”.

For the origin of these results see patent US4677104A, “Antipsychotic fused-ring pyridinylpiperazine derivatives” (Bristol-Myers Company, priority 1986, dated 1987).
